What follows are compounds tested against T1, GST-Xa-hAAK1 (Homo sapiens, UniProt Q2M2I8) (assay: AAK1 kinase assay). Details: ATP 22 μM, 3 hours at room temperature.
T1 construct: made in house
Format: biochemical
Protocol: The assays were performed in U-bottom 384-well plates. […] The reactions were initiated by the combination of bacterially expressed, GST-Xa-hAAK1 with substrates and test compounds. The reactions were incubated at room temperature for 3 hours and terminated by adding 60 μl of 35 mM EDTA buffer to each sample. The reactions were analyzed on the Caliper LabChip 3000 (Caliper, Hopkinton, Mass.) by electrophoretic separation of the fluorescent substrate and phosphorylated product. […] Compounds were dissolved at 10 mM in dimethylsulfoxide (DMSO) and evaluated at eleven concentrations. IC50 values were derived by non-linear regression analysis.

T1 sequence (Q2M2I8 whole entry): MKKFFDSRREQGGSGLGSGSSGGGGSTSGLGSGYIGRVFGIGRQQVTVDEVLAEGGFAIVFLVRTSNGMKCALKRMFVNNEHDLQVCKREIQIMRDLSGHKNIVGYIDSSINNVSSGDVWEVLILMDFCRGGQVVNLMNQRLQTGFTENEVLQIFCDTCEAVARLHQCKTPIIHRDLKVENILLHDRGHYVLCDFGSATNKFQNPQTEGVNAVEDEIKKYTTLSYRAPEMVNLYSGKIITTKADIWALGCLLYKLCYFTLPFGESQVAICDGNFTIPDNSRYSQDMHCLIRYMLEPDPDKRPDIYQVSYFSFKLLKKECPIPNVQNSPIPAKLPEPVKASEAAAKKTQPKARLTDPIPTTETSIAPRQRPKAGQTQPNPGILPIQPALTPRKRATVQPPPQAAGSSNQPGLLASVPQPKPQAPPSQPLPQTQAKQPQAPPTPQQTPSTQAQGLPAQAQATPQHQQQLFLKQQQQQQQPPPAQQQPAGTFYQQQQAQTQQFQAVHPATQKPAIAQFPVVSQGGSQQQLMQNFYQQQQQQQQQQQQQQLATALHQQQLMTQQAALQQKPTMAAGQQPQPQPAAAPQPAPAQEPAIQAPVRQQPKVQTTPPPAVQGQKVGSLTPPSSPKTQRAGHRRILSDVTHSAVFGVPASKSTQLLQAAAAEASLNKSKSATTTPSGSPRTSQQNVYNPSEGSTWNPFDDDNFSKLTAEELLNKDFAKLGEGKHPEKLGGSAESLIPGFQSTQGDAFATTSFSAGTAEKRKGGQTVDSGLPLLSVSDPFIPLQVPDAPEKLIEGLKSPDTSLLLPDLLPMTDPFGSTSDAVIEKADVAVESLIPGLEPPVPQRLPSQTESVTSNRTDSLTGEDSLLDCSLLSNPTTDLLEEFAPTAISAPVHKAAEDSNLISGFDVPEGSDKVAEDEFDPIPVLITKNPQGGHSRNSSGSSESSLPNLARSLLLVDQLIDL

SMILES | IC50 [nM]
CC(C)C[C@H](N)COc1ccc2c3ccncc3c(=O)n(CCO)c2c1 [Example 44, (S)-8-(2-amino-4-methylpentyloxy)-6-(2-hydroxyethyl)benzo[c][2,7]naphthyridin-5(6H)-one] | 41
Cc1nccc2c1c(=O)n(C)c1cc(OC[C@@H](N)CC(C)C)c(C(C)(C)O)cc21 [Example 35, (S)-8-((2-amino-4-methylpentyl)oxy)-9-(2-hydroxypropan-2-yl)-4,6-dimethylbenzo[c][2,7]naphthyridin-5(6H)-one] | 114
Cc1cc2c(cn1)c(=O)n(C)c1cc(OC[C@@H](N)CC(C)C)ccc21 [Example 67, (S)-8-((2-amino-4-methylpentyl)oxy)-2,6 dimethylbenzo[c][2,7]naphthyridin-5(6H)-one] | 893
CC(C)C[C@H](N)COc1cc2c(cc1O)c1ccncc1c(=O)n2C [Example 7, (S)-8-(2-amino-4-methylpentyloxy)-9-hydroxy-6-methylbenzo[c][2,7]naphthyridin-5(6H)-one] | 11
COc1cc2c3ccnc(C)c3c(=O)n(C)c2cc1OCC(C)(N)CC(C)C (centres unmarked) [Example 34, 8-((2-amino-2,4-dimethylpentyl)oxy)-9-methoxy-4,6-dimethylbenzo[c][2,7]naphthyridin-5(6H)-one] | 5.9
CC(C)CC(C)(N)COc1ccc2c3ccncc3c(=O)n(C)c2c1 (centres unmarked) [Example 28, 8-((2-amino-2,4-dimethylpentyl)oxy)-6-methylbenzo[c][2,7]naphthyridin-5(6H)-one] | 1.1
Cc1nccc2c1c(=O)n(C)c1cc(OC[C@@H](N)CC3CC3)ccc21 [Example 21, (S)-8-(2-amino-3-cyclopropylpropoxy)-4,6-dimethylbenzo[c][2,7]naphthyridin-5(6H)-one] | 23
Cn1c(=O)c2cnccc2c2ccc(OCC3CCCCN3)cc21 (centres unmarked) [Example 57, 6-methyl-8-(piperidin-2-ylmethoxy)benzo[c][2,7]naphthyridin-5(6H)-one] | 229
Cc1nccc2c1c(=O)[nH]c1c(F)c(OC[C@@H](N)CC(C)C)ccc12 [Example 82, (S)-8-(2-amino-4-methylpentyloxy)-7-fluoro-4-methylbenzo[c][2,7]naphthyridin-5(6H)-one] | 150
CC(C)C[C@H](N)COc1ccc2c3ccncc3c(=O)n(Cc3ccccc3)c2c1 [Example 11, (S)-8-((2-amino-4-methylpentyl)oxy)-6-benzylbenzo[c][2,7]naphthyridin-5(6H)-one] | 73
Cc1nccc2c1c(=O)n(C)c1cc(OC[C@@H](N)CC3CCC3)ccc21 [Example 22, (S)-8-(2-amino-3-cyclobutylpropoxy)-4,6-dimethylbenzo[c][2,7]naphthyridin-5(6H)-one] | 12
COCCn1c(=O)c2c(C)nccc2c2ccc(OC[C@@H](N)CC(C)C)cc21 [Example 80, (S)-8-((2-amino-4-methylpentyl)oxy)-6-(2-methoxyethyl)-4-methylbenzo[c][2,7]naphthyridin-5(6H)-one] | 134
COc1ccc(CNc2nccc3c2c(=O)n(C)c2cc(OC[C@@H](N)CC(C)C)ccc32)cc1 [Example 50, (S)-8-((2-amino-4-methylpentyl)oxy)-4-((4-methoxybenzyl)amino)-6-methylbenzo[c][2,7]naphthyridin-5(6H)-one] | 33
Cc1nccc2c1c(=O)n(C)c1cc(OC[C@@](C)(N)CC(C)C)ccc21 (single isomer, unassigned) [Example 38] | 13
CC(C)C[C@H](N)COc1ccc2c3ccncc3c(=O)n(CC(F)(F)F)c2c1 [Example 45, (S)-8-(2-amino-4-methylpentyloxy)-6-(2,2,2-trifluoroethyl)benzo[c][2,7]naphthyridin-5(6H)-one] | 29
Cc1nccc2c1c(=O)n(C)c1c(Cl)c(OC[C@@H](N)CC(C)C)ccc21 [Example 61, (S)-8-((2-amino-4-methylpentyl)oxy)-7-chloro-4,6-dimethylbenzo[c][2,7]naphthyridin-5(6H)-one] | 126
COCCn1c(=O)c2cnccc2c2ccc(OC[C@@H](N)CC(C)C)cc21 [Example 12, (S)-8-((2-amino-4-methylpentyl)oxy)-6-(2-methoxyethyl)benzo[c][2,7]naphthyridin-5(6H)-one] | 85
CC(C)OC[C@H](N)COc1ccc2c3ccncc3c(=O)n(C)c2c1 [Example 53, (S)-8-(2-amino-3-isopropoxypropoxy)-6-methylbenzo[c][2,7]naphthyridin-5(6H)-one] | 119
Cc1nccc2c1c(=O)n(C)c1cc(OC[C@@H](N)CC(C)C)c(C(C)O)cc21 (single isomer, unassigned) [Example 30] | 1.7

Same assay, conditions: given as IC50 range; ATP 22 μM, 3 hours at room temperature

IC50 [nM] | SMILES
100 to 2000 | CC(=O)Nc1cc2c(cn1)c(=O)n(C)c1cc(OC[C@@H](N)CC(C)C)ccc21 [Example 18, (S)—N-(8-(2-amino-4-methylpentyloxy)-6-methyl-5-oxo-5,6-dihydrobenzo[c][2,7]naphthyridin-2-yl)acetamide]
10 to 100 | CC(C)C[C@H](N)COc1ccc2c3ccncc3c(=O)n(C(C)C)c2c1 [Example 8, (S)-8-((2-amino-4-methylpentyl)oxy)-6-isopropylbenzo[c][2,7]naphthyridin-5(6H)-one]
10 to 100 | Cc1nccc2c1c(=O)[nH]c1c(F)c(OCC(C)(N)CC(C)C)ccc12 (centres unmarked) [Example 105, 8-(2-amino-2,4-dimethylpentyloxy)-7-fluoro-4-methylbenzo[c][2,7]naphthyridin-5(6H)-one]
100 to 2000 | Cc1nccc2c1c(=O)n(C)c1c(F)c(OCC(C)(N)CC(C)C)ccc21 (centres unmarked) [Example 29, 8-((2-amino-2,4-dimethylpentyl)oxy)-7-fluoro-4,6-dimethylbenzo[c][2,7]naphthyridin-5(6H)-one]
100 to 2000 | Cc1nccc2c1c(=O)n(C)c1cc(OC[C@@H](N)CC(C)C)c(S(C)(=O)=O)cc21 [Example 76, (S)-8-(2-amino-4-methylpentyloxy)-4,6-dimethyl-9-(methylsulfonyl)benzo[c][2,7]naphthyridin-5(6H)-one]
1 to 10 | Cc1nccc2c1c(=O)n(C)c1cc(OCC(N)CC(F)(F)F)ccc21 (single isomer, unassigned) [Example 92]
10 to 100 | Cc1nccc2c1c(=O)n(C)c1cc(OC[C@@H](N)CC(C)C)c(C(C)O)cc21 (single isomer, unassigned) [Example 31]
1 to 10 | COc1cc2c3ccnc(C)c3c(=O)n(C)c2cc1OC[C@@H](N)CC(C)C [Example 89, (S)-8-((2-amino-4-methylpentyl)oxy)-9-methoxy-4,6-dimethylbenzo[c][2,7]naphthyridin-5(6H)-one]
1 to 10 | Cc1nccc2c1c(=O)[nH]c1cc(OCC(C)(N)CC(C)C)c(F)cc12 (centres unmarked) [Example 102, 8-(2-amino-2,4-dimethylpentyloxy)-9-fluoro-4-methylbenzo[c][2,7]naphthyridin-5(6H)-one]
10 to 100 | Cc1nccc2c1c(=O)n(C)c1cc(OCC(N)CC(F)(F)F)ccc21 (single isomer, unassigned) [Example 91]
10 to 100 | Cc1cc2c(cn1)c(=O)n(C)c1cc(OC[C@@H](N)CC(C)C)c(Cl)cc21 [Example 68, (S)-8-((2-amino-4-methylpentyl)oxy)-9-chloro-2,6-dimethylbenzo[c][2,7]naphthyridin-5(6H)-one]
1 to 10 | Cc1nccc2c1c(=O)[nH]c1c(F)c(OC[C@@H](N)CC(C)C)c(Br)cc12 [Example 100, (S)-8-(2-amino-4-methylpentyloxy)-9-bromo-7-fluoro-4-methylbenzo[c][2,7]naphthyridin-5(6H)-one]
100 to 2000 | Cc1nccc2c1c(=O)n(C)c1cc(OC[C@@H](N)CC(C)C)c(C(=O)N(C)C)cc21 [Example 96, (S)-8-((2-amino-4-methylpentyl)oxy)-N,N,4,6-tetramethyl-5-oxo-5,6-dihydrobenzo[c][2,7]naphthyridine-9-carboxamide]
1 to 10 | Cc1nccc2c1c(=O)n(C)c1cc(OC[C@@H](N)CC(C)C)c(-n3cccn3)cc21 [Example 74]
10 to 100 | Cn1c(=O)c2cnccc2c2ccc(OC[C@@H](N)CC(C)(F)F)cc21 [Example 55, (S)-8-((2-amino-4,4-difluoropentyl)oxy)-6-methylbenzo[c][2,7]naphthyridin-5(6H)-one]
1 to 10 | Cc1nccc2c1c(=O)n(C)c1cc(OC[C@@H](N)CC(C)C(F)(F)F)ccc21 (single isomer, unassigned) [Example 87]
100 to 2000 | CC(C)C[C@H](N)COc1ccc2c3ccnc(C(F)F)c3c(=O)n(C)c2c1 [Example 60, (S)-8-(2-amino-4-methylpentyloxy)-4-(difluoromethyl)-6-methylbenzo[c][2,7]naphthyridin-5(6H)-one]
100 to 2000 | Cc1cc2c(cn1)c(=O)n(C)c1cc(OC[C@@H](N)CC(C)C)c(Br)cc21 [Example 66]
1 to 10 | Cc1nccc2c1c(=O)n(C)c1cc(OC[C@@H](N)CC(C)C)c(CO)cc21 [Example 71, (S)-8-(2-amino-4-methylpentyloxy)-9-(hydroxymethyl)-4,6-dimethylbenzo[c][2,7]naphthyridin-5(6H)-one]
10 to 100 | CN[C@H](COc1ccc2c3ccncc3c(=O)n(C)c2c1)CC(C)C [Example 54, (S)-6-methyl-8-((4-methyl-2-(methylamino)pentyl)oxy)benzo[c][2,7]naphthyridin-5(6H)-one]
10 to 100 | COC[C@H](N)COc1ccc2c3ccncc3c(=O)n(C)c2c1 [Example 69, (S)-8-(2-amino-3-methoxypropoxy)-6-methylbenzo[c][2,7]naphthyridin-5(6H)-one]

SMILES | IC50 [nM]
Cn1c(=O)c2cnccc2c2ccc(OCC(N)CC(F)(F)F)cc21 (centres unmarked) [Example 93, 8-(2-amino-4,4,4-trifluorobutoxy)-6-methylbenzo[c][2,7]naphthyridin-5(6H)-one] | 10 to 100

— patent US8901305B2, “Aryl lactam kinase inhibitors” (Bristol-Myers Squibb Company, priority 2012, dated 2014)
